Experiments:
[1] = target: recombinant PKM2 monomers and tetramers (Homo sapiens, UniProt P14618); format: biochemical; conditions: 100 µM FBP
[2] = target: PKM2 in A549 cells (Homo sapiens, UniProt P14618); test: Size exclusion chromatography of cell lysates; format: cell-based; conditions: 100 μM pervanadate for 10 min
PKM2 in A549 cells, sequence (P14618 2-531 limits assumed): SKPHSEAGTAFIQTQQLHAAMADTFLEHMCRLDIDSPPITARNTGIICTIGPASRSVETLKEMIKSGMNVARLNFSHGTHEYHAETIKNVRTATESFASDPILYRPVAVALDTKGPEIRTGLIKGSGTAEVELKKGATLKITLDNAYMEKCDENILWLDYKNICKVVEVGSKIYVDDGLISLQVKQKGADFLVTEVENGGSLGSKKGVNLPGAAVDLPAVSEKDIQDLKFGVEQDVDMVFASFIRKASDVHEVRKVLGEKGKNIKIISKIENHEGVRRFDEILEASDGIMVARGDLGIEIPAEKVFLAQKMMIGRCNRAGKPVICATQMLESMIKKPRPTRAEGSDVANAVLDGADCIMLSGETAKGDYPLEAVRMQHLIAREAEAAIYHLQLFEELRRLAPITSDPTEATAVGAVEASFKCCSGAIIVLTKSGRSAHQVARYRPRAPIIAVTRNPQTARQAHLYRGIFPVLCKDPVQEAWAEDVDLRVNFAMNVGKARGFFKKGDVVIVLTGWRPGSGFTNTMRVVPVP

recombinant PKM2 monomers and tetramers, sequence (P14618 whole entry): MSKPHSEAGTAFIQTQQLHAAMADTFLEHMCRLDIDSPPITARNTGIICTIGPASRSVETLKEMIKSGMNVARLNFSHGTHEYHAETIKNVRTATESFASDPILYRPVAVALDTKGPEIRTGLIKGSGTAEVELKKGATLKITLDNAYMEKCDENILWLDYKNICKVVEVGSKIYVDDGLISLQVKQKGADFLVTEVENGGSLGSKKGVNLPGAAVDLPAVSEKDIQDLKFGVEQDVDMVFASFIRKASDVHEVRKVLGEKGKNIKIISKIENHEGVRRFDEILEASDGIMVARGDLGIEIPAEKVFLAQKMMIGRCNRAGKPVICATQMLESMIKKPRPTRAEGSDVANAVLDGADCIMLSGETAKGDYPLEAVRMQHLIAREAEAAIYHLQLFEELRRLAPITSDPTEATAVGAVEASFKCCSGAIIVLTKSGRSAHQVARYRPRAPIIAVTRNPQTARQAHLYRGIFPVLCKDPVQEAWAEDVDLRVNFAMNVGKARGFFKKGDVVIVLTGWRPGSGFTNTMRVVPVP

Compound	effect on PKM2 tetramer activity [1]	increase of activity of PKM2 monomers [1]	PKM2 subunit stoichiometry in cells after pervanadate [2]
O=C(COP(=O)(O)O)[C@@H](O)[C@H](O)[C@H](O)COP(=O)(O)O [FBP, fructose-1,6-bisphosphate]	minimal effects	approximately 70%	
Pervanadate			disappearance of PKM2 tetramers

From publication PMC3711671 (Nature chemical biology, 2012)
